Experimental data from patent US10519111B2, “UV absorbing compounds, compositions comprising same and uses thereof” (CORAL SUNSCREEN PTY LTD, priority 2013, dated 2019).

How the values were obtained:
Type in all cases: physicochemical
[1] = UV absorption properties (λmax, molar extinction coefficient ε, efficiency E 1%, 1 cm)
[2] = Critical wavelength (λcrit), approximate in-house measurement
Excerpt: As the precise test for critical wavelength was unable to be replicated exactly by the inventors due to the need for specialist equipment and a specific calibration of the spectrophotometer, these values are only approximate to a degree. […] This represents a highly useful result and so, compounds based around this benzoyl substitution pattern shown, are especially preferred.

Photostability = details: Table 13B
[3] = Table 13B, miscellaneous compounds
[4] = Table 13B, values in order of the λmax values
[5] = Table 13B, values in order of the λmax values, in M-1 cm-1
[6] = Table 7, values in order of the λmax values
[7] = Table 6B, N-tert-butyl compounds
[8] = Table 10, bis and mono enamine compounds
[9] = Table 11, compounds from mixed anhydrides

SMILES | λmax [1, 3] | E (1%, 1 cm) [1, 4] | ε [1, 5] | λcrit ([2]; Table 13B) | Photostability (%) (Photostability) | also measured
CC1(C)CCN(c2ccc(N3C=C(C(=O)CCC(F)(F)F)C(C)(C)CC3)cc2)C=C1C(=O)CCC(F)(F)F | 358 nm | 1090 | 59296 | 379 nm | 54% | 
CC1(C)CCN(C(C)(C)C)C=C1C(=O)c1ccc(C(F)(F)F)cc1 | 315 nm | 782 | 26531 | 349 nm | 76% | 
CC1(C)CCN(C(C)(C)C)C=C1C(=O)c1c(F)cccc1F | 312 nm | 1162 | 35700 | 331 nm | 85% | 
CCCCC(CC)CN(c1ccc(C(=O)C2=CN(C(C)(C)C)CCC2(C)C)cc1)c1ccc(C(=O)C2=CN(C(C)(C)C)CCC2(C)C)cc1.Cl (stereo not shown) | 316 nm | 653 | 45910 | 370 nm | 39% | 
CCOC(=O)C(=O)C1=CN(C(C)(C)C)CCC1(C)C | 311 nm | 998 | 26668 | 344 nm | 50% | 
CCCCC(CC)COC(=O)c1cc(/C=C/C(=O)C2=CN(C(C)(C)C)CCC2(C)C)ccc1/C=C/C(=O)C1=CN(C(C)(C)C)CCC1(C)C (stereo not shown) | 378 nm | 460 | 30963 | 388 nm | 2% | 
CCOC(=O)C(=O)C1=CN(c2ccccc2)CCC1(C)C | 332 nm | 1210 | 34743 | 362 nm | 68% | 
CC1(C)CCN(C(C)(C)C)C=C1C(=O)/C=C/c1ccc(C(=O)C2=CN(C(C)(C)C)CCC2(C)C)cc1 | 360 nm | 564 | 27646 | 385 nm | 77% | 
Cc1ccc(NC(=O)C2=CN(C(C)(C)CC(C)(C)C)CCC2(C)C)cc1NC(=O)C1=CN(C(C)(C)CC(C)(C)C)CCC1(C)C | 311 nm | 990 | 61479 | 328 nm | 55% | 
CCCCC(CC)CN(c1ccc(C(=O)C2=CN(C(C)(C)C)CCC2(C)C)cc1)c1ccc(C(=O)C2=CN(C(C)(C)C)CCC2(C)C)cc1 (stereo not shown) | 316 nm | 624 | 41598 | 369 nm |  | shoulder in the λmax column ([1]; Tables 5, 10, 13B): ~340 nm; Photostability (%) + Octo (Photostability; with octocrylene (+ Octo)): 90%
CC1(C)CCN(C(C)(C)C)C=C1C(=O)/C=C/c1cccc(/C=C/C(=O)C2=CN(C(C)(C)C)CCC2(C)C)c1 | 360 nm | 395 | 20388 | 386 nm | 95% | 
CC1(C)CCN(C(C)(C)C)C=C1C(=O)c1ccccc1 | 315 nm | 939 | 25447 | 342 nm | 76% | 
CC1(C)CCN(C(C)(C)C)C=C1C(=O)c1c(F)c(F)c(F)c(F)c1F | 314 nm | 951 | 34340 | 333 nm | 100% | 
CN1C=C(C(=O)c2ccc(N(C)CCCCCCN(C)c3ccc(C(=O)C4=CN(C(C)(C)C)CCC4(C)C)cc3)cc2)C(C)(C)CC1 |  |  |  | 364 nm | 22% | 
COc1ccc(N2C=C(C(=O)COc3ccccc3)C(C)(C)CC2)cc1 [drawing 132] |  |  |  |  |  | E (1%, 1 cm) ([1]; Table 8b): 759; λmax ([1]; Table 8b, N-phenyl compounds): 339 nm; ε ([1]; Table 8b, in M-1 cm-1): 26633; λcrit ([2]; Table 8b): 362 nm
C=CC(=O)C1=CN(CC(C)C)CCC1(C)C [drawing 112] |  |  |  |  |  | λmax ([1]; Table 7, unsaturated compounds): 330 nm; E (1%, 1 cm) [1, 6]: 915; ε [1, 6]: 20500 M⁻¹ cm⁻¹; λcrit ([2]; Table 7): 363 nm
C=CC(=O)C1=CN(C(C)(C)C)CCC1(C)C [drawing 92] |  |  |  |  |  | E (1%, 1 cm) ([1]; Table 6B): 1127; λmax [1, 7]: 328 nm; ε ([1]; Table 6B, in M-1 cm-1): 24907; λcrit ([2]; Table 6B): 360 nm

SMILES | λmax [1, 3] | E (1%, 1 cm) [1, 4] | ε [1, 5] | λcrit ([2]; Table 13B) | Photostability (%) (Photostability) | also measured
Cc1cc(/C=C/C(=O)C2=CN(C(C)(C)C)CCC2(C)C)c(C)cc1Br | 360 nm | 532 | 21473 | 386 nm |  | 
Cc1ccc(N2C=CC(C)(C)C=C2)cc1 |  |  |  |  |  | E (1%, 1 cm) ([1]; Table 10): 1601; λmax [1, 8]: 283 nm; ε ([1]; Table 10, in M-1 cm-1): 31871; λcrit ([2]; Table 10): 317 nm
Cc1ccc(N2C=C(C(=O)Nc3ccccc3)C(C)(C)CC2)cc1 [drawing 69] |  |  |  |  |  | Ε (1%, 1 cm) ([1]; Table 4): 1060; λmax ([1]; Table 4, N-aryl enamines with isocyanates): 323 nm; ε ([1]; Table 4, in M-1 cm-1): 33948; λcrit ([2]; Table 4): 342 nm
CC1(C)CCN(C(C)(C)C)C=C1C(=O)c1ccc(Nc2ccccc2)cc1 | 315 nm | 737 | 26695 | 361 nm |  | 
Cc1ccc(N2C=C(C(=O)C(F)(F)F)C(C)(C)CC2)cc1 [drawing 142] |  |  |  |  |  | E (1%, 1 cm) ([1]; Table 9): 1465; λmax ([1]; Table 9, C3-trifluoroacetylated N-aryl enamines): 337 nm; ε ([1]; Table 9, in M-1 cm-1): 43513; λcrit ([2]; Table 9): 361 nm
COC(=O)c1cc(/C=C/C(=O)C2=CN(C(C)(C)C)CCC2(C)C)ccc1/C=C/C(=O)C1=CN(C(C)(C)C)CCC1(C)C | 383 nm | 525 | 30128 | 389 nm |  | 
CC1(C)CCN(c2ccc(C(C)(C)C)cc2)C=C1C(=O)C(c1ccccc1)c1ccccc1 [drawing 157] |  |  |  |  |  | E (1%, 1 cm) ([1]; Table 11): 407; λmax [1, 9]: 337 nm; ε ([1]; Table 11, in M-1 cm-1): 17793; λcrit ([2]; Table 11): 356 nm
Cc1ccc(N2C=C(C(=O)N(CCCCN(C(=O)C3=CN(c4ccc(C)cc4)CCC3(C)C)c3ccccc3)c3ccccc3)C(C)(C)CC2)cc1 | 325 nm | 608 | 42215 | 346 nm |  | 
CCCCCCCC(=O)C1=CN(c2ccc(N(C)C)cc2)CCC1(C)C [drawing 134] |  |  |  |  |  | E (1%, 1 cm) ([1]; Table 8b): 785; λmax ([1]; Table 8b, N-phenyl compounds): 338 nm; ε ([1]; Table 8b, in M-1 cm-1): 28040; λcrit ([2]; Table 8b): 371 nm
CCCCNc1ccc(C(=O)C2=CN(C(C)(C)C)CCC2(C)C)cc1 | 316 nm | 626 | 21545 | 360 nm |  | 
CC1(C)CCN(c2ccc(C(C)(C)C)cc2)C=C1C(=O)C1c2ccccc2-c2ccccc21 [drawing 158] |  |  |  |  |  | E (1%, 1 cm) ([1]; Table 11): 707; λmax [1, 9]: 339 nm; ε ([1]; Table 11, in M-1 cm-1): 30745; λcrit ([2]; Table 11): 358 nm
Cc1ccc(N2C=CC(C)(C)CC2)cc1 |  |  |  |  |  | E (1%, 1 cm) ([1]; Table 10): 1036; λmax [1, 8]: 278 nm; ε ([1]; Table 10, in M-1 cm-1): 20823; λcrit ([2]; Table 10): 321 nm
CC1(C)CCN(C(C)(C)C)C=C1C(=O)c1ccc(Br)cc1 [drawing 94] |  |  |  |  |  | E (1%, 1 cm) ([1]; Table 6B): 785; λmax [1, 7]: 317 nm; ε ([1]; Table 6B, in M-1 cm-1): 27506; λcrit ([2]; Table 6B): 347 nm
CC1(C)CCN(C(C)(C)C)C=C1C(=O)c1ccc(N2CCN(c3ccc(C(=O)C4=CN(C(C)(C)C)CCC4(C)C)cc3)CC2)cc1 | 323 nm | 830 | 51851 | 356 nm |  | 
CCCCCCCCCCCCCCCCCC(=O)C1=CN(c2ccc(N3C=C(C(=O)CCCCCCCCCCCCCCCCC)C(C)(C)CC3)cc2)CCC1(C)C | 359 nm | 447 | 37068 | 379 nm |  | 
CCC(=O)C1=CN(c2cccc3ccccc23)CCC1(C)C [drawing 137] |  |  |  |  |  | E (1%, 1 cm) ([1]; Table 8b): 793; λmax ([1]; Table 8b, N-phenyl compounds): 321 nm; ε ([1]; Table 8b, in M-1 cm-1): 23247; λcrit ([2]; Table 8b): 346 nm
CC1(C)CCN(C(C)(C)C)C=C1C(=O)Nc1ccccc1 [drawing 57] |  |  |  |  |  | Ε (1%, 1 cm) ([1]; Table 3): 1217; λmax ([1]; Table 3, compounds from isocyanates or isothiocyanates): 308 nm; ε ([1]; Table 3, in M-1 cm-1): 34834; λcrit ([2]; Table 3): 326 nm
